Measured values from patent US6262036A, “Method for inhibiting RNA translation using chimeric oligonucleoside compounds” (priority 2000, dated 2001).
Values joined by “and” are separate entries in the source; they are usually repeats but may differ in a detail not shown here. Identical values can stand only once.

Tests used:
pG1036 (wild-type CAT) = test: Inhibition of CAT expression, non-splicing control pG1036 (wild-type CAT), in COS-7 cells; type: cell-based, African Green Monkey; conditions: 1.0 μM oligomer; ± std error; normalized to protein and luciferase
Experimental: (§1) COS-7 cells were transiently transfected with plasmids encoding either a target reporter gene or a control non-target reporter gene. These cells were then treated with various chimeric antisense or control oligomers and then assayed for the expression of the reporter genes.
pG1036: Wild-type CAT, inserted into a pRc/CMV vector
COS 7 cells were plated at 1.5×10^5 cells/well in a 12 well plate format on the day before transfections began. All cultures were maintained at 37° C. On the next day, the transfection mixes were prepared. […] These quantities gave a 6.9 or 4.5 or 2.0 to 1 cationic lipid to oligomer plus DNA ratio, respectively, in one milliliter total. pGL2 and pSVβ served as transfection and oligomer specificity controls. […]
(§2) The cell lysates were then assayed for CAT, and luciferase or […] activity, and the total protein concentration was determined as described below. […]
(§3) […] of reaction mixture was then added to each tube, which was then incubated for, typically, approximately 1 hour in a 37° C. oven. […] The sample was then counted in a Packard scintillation counter.
(§4) This assay was performed generally as follows according to standard procedures. 20 μof lysate was combined with 100 μl of luciferase assay reagent (Promega) and counted in a scintillation counter (Packard) within 20 seconds (as recommended by Promega). […]

pG1035 (SplicerCAT) = test: Inhibition of CAT expression, splicing target pG1035 (SplicerCAT), in COS-7 cells; type: cell-based, African Green Monkey; conditions: 1.0 μM oligomer; ± std error; normalized to protein and luciferase; chimeric oligomers also normalized to pG1036
Experimental: as §1
pG1035: Splicer CAT, inserted into a pRc/CMV vector
COS 7 cells were plated at 1.5×10^5 cells/well in a 12 well plate format on the day before transfections began. All cultures were maintained at 37° C. On the next day, the transfection mixes were prepared. For each well of a 12 well plate, 1.0 μM oligomer was combined with 1 μg pGL2 or pSVβ+1 μg of the target CAT plasmid in 0.5 ml of Optimem (Gibco/BRL) and 18.75 μg Transfectam (for chimeric oligomers, Promega) or Lipofectamine (for all PS oligomers, Promega) also in 0.5 ml of Optimem. These quantities gave a 6.9 or 4.5 or 2.0 to 1 cationic lipid to oligomer plus DNA ratio, respectively, in one milliliter total. pGL2 and pSVβ served as transfection and oligomer specificity controls. […]
as §2, §3, §4
Six μl of lysate per well was added, followed by 300 μl Coomassie Protein Assay Reagent (Pierce) per well. The individual sample plates were then read at A570 on a microplate reader (Molecular Devices). […]
Oligomers were transfected into COS-7 cells and lysates were made and assayed as described previously. […] N.D.=not determined. […]

S1-endonuclease = test: Stability to nuclease digestion by S1-endonuclease (Example 37); type: in vitro ADME; conditions: S1-endonuclease 0.5 units/mL, pH 5.0, 37° C.; 50% full length oligomer digested
Experimental: The following oligomers were tested for nuclease stability in the presence of S1-endonuclease.
S1-endonuclease was purchased from Promega Corp. (Catalog #E576B, Madison, Wis.). Aliquots of each chimeric oligomer (0.05-0.075 OD260 units) were individually added to polypropylene microcentrifuge tubes containing S1-endonuclease (0.5 units/mL) in 30 mM sodium acetate (pH 5.0), 50 mM NaCl, 1.0 mM zinc acetate and 5% glycerol; total reaction volume=10 μL. These tubes were incubated at 37° C. for specified time periods, quickly frozen in dry ice and then stored in a freezer at -20° C. […] Column=Vydac Protein C4 (catalog #214TP54, 4.9 mm i.d.×250 mm long). Buffer A=50 mM triethylammonium acetate (pH 7)/1% acetonitrile; Buffer B=50 mM triethylammonium acetate (pH 7)/50% acetonitrile. […] The samples were diluted with water (50 μL) and injected onto the column using a 100 μL sample loop. Peaks corresponding to full length oligomer and its degradation products were detected by monitoring at 260 nm. The amount of degradation occurring in each reaction was determined by measuring the reduction in peak area for the full-length oligomer (identified by comparison to an external control and/or by coinjecting undigested oligomer as an internal control). The data is shown in tabular format below, and in graphic format in FIG. 1.

target mRNA [1] = test: Cell-free translation of target mRNA in rabbit reticulocyte lysates (Example 39); type: biochemical
Experimental: (§5) A target mRNA having complementarity to these oligomers at the initiation codon region was prepared by standard cloning techniques with […] catalyzed by T7 polymerase (Promega MEGAscript kit for uncapped RNA), according to the manufacturer's protocol. Control CAT mRNA was obtained from GIBCO as a control for specificity.
(§6) Target mRNA and control CAT mRNA were translated in a cell-free translation assay in rabbit reticulocyte lysates (Promega), in the presence of ^35 [S]-Cys (NEN/DuPont) following the manufacturer's directions. Oligos 2567-1 and 3169-1 were added to individual translation reactions at […], final concentrations. RNAse-H (Promega Corp.) was added to all the translation reactions at 0.04 units/ul. Each condition was run in triplicate. Translation reactions were incubated at 37° C. for 1 hour. At the end of the translation reactions, proteins were denatured with Laemmli Sample Buffer (Novex) and the amounts of target proteins synthesized in each case were evaluated after immunoprecipitation with an hyperimmune antibody serum followed by gel fractionation of the protein products (10-20% gradient SDS-PAGE gels, Novex) and phosphoimage analysis. The amount of control CAT protein synthesized in each case was evaluated after gel fractionation of one aliquot of the denatured translation reaction (10-20% gradient SDS-PAGE gels, Novex) and phosphoimage analysis.

target mRNA [2] = test: Cleavage of target mRNA in the presence of RNAseH (Example 40); type: biochemical; conditions: for % of target mRNA cleavage: 30 minutes, estimated by visual inspection of the gel; for specificity of target mRNA cleavage: denaturing gel
Experimental: A target mRNA having complementarity to these oligomers at the initiation codon region was prepared by standard cloning techniques with transcription using a T7 polymerase cell-free assay (Promega MEGAscript kit for uncapped RNA), according to the manufacturer's protocol. The resulting mRNA transcript is approximately 340 nt in length.
The ability to cleave this target mRNA, in the presence of RNAseH and either of oligomers 2567-1 {[MP]-[DE]-[MP]} and 3169-1 {[MP(Rp)/DE]-[DE]-[MP(Rp)/DE]} was determined as follows.
Cell-free transcribed mRNA (100 nM) was incubated at 37° C., in a cell-free translation buffer (containing 3.5 mM MgCl2, 25 mM KCl, 70 mM NaCl and 20 mM potassium acetate), in the presence of 0.04 units/μl of RNAseH (Promega) and either of oligomers 2567-1 or 3169-1 at 0, 0.01, 0.1, 1, or 10 μM. After 30 minutes, the RNA was extracted, denatured and run in a denaturing gel. After the run, the RNA was stained with ethidium bromide and its integrity was determined by visual observation of the RNA bands present in the gel.

control CAT mRNA = test: Cell-free translation of control CAT mRNA in rabbit reticulocyte lysates (Example 39); type: biochemical; conditions: 0.2 or 1 μM
Experimental: as §5
as §6, with “Translation reactions were incubated at 37° C. for 1 hour.” left out

[3] = test system: endogenous eukaryotic RNaseH derived from HeLa cell nuclear extracts; type: biochemical; conditions: 10 μM oligomer, 1 μM RNA target
[4] = test system: complementary synthetic RNA target; test: Binding affinities of chimeric backbone oligomers to RNA (Example 35); set-up: KA (37° C.): unit not given here; conditions: for Tm: 1:1 molar ratio, 2.4 micromolar total strand, pH 7.2, 100 mM NaCl; for KA (37° C.): two-state model fit
Experimental: The following oligonucleotides were tested for their ability to hybridize to a complementary synthetic RNA target.
The bases shown in parentheses contain the backbone modification indicated in the middle set of brackets for each description, and likewise the terminal portions of the oligomers contain linkage structures as shown in the terminal sets of brackets. The PS/DE notation indicates an alternating array of bases beginning with a phosphorothioate linkage. For example, if there are five bases in a sequence denoted as PS/DE, they include three phosphorothioate (PS) bonds and two phosphodiester (DE) bonds.
Each oligomer was mixed with its complementary synthetic RNA target in a 1:1 molar ratio in a buffer system consisting of 20 mM sodium phosphate buffer (pH 7.2), 100 mM NaCl, 0.03% potassium sarkosylate and 0.1 mM EDTA; total strand concentration=2.4 micromolar. The resulting solutions were heated to 70° C. and slowly cooled to 4° C. over a time period of approximately 4-6 hours. […] The binding constants at 37° C.

[5] = Stability to nuclease digestion in 10% fetal calf serum (Example 38); type: in vitro ADME; conditions: pH 8.0, 37° C., 50% full length oligomer digested, first three time points
Experimental: Multiple samples of each chimeric oligomer were prepared in 1.5 mL polypropylene microcentrifuge tubes on ice. Each sample contained oligomer (0.1 OD260 unit), 10% fetal calf serum (FCS, Gemini Bioproducts, Calabasas, Calif.), 20 mM HEPES (pH 8.0), 0.2% paramethylsulfonyl fluoride (PMSF), 175 mM KCl, 0.1 mM dithiothreitol, 0.1 mM EDTA, 2 mM MgCl2 and 4% glycerol--total volume=100 μL. The samples were incubated at 37° C. for specified time periods and then diluted with 0.4% NP-40/acetonitrile (35 μL), quickly frozen on dry ice and stored at -20° C. Samples were then individually thawed, diluted with water (635 μL) and analyzed immediately by reversed-phase HPLC according to the method given in the preceding example (except that a 2 mL sample loop was used to load the samples onto the column). Results are shown in tabular format below, and in graphical format in FIG. 2.

Substance	percent inhibition of CAT expression, pG1036 = non-splicing (pG1036 (wild-type CAT)) [%]	percent inhibition of CAT expression, pG1035 = splicing (pG1035 (SplicerCAT)) [%]	Half-Life for Degradation (S1-endonuclease) [h]	inhibition of target mRNA translation (target mRNA [1]; 0.2 μM)	inhibition of target mRNA translation (target mRNA [1]; 1 μM)	% of target mRNA cleavage (target mRNA [2]; 0.01 μM) [%]	% of target mRNA cleavage (target mRNA [2]; 0.1 μM) [%]	% of target mRNA cleavage (target mRNA [2]; 1 μM)	% of target mRNA cleavage (target mRNA [2]; 10 μM) [%]	specificity of target mRNA cleavage (target mRNA [2])	inhibition of control CAT mRNA translation (control CAT mRNA)	RNaseH Cleavage after 2 Hrs. at 37° C. [3] [%]	Tm [4] [°C]	KA (37° C.) [4]	Half-Life for Degradation [5] [h]
XV-5: 24mer, all phosphorothioate: 5' cac tca cct tta ggg aaa tag gcc 3' (CACTCACCTTTAGGGAAATAGGCC; all phosphorothioate, sugars by position and methylation of C not given here)	35 ± 1	32 ± 1	–	–	–	–	–	–	–	–	–	–	–	–	–
XV-6: 24mer, all phosphorothioate: 5' cac tca atc aat gac tag tct gca 3' (CACTCAATCAATGACTAGTCTGCA; all phosphorothioate, sugars by position and methylation of C not given here)	30 ± 4	23 ± 15	–	–	–	–	–	–	–	–	–	–	–	–	–
3169-1: 5'-GTCTTCCA(TGCAT)GTTGTCC-3' [MP(Rp)/DE][DE][MP(Rp)/DE] [Oligomer 3169-1]	–	–	0.9	approximately 50%	~90%	5	40	~ 98% and 98%	100	good specificity, cleaving the target mRNA in one position	little inhibition	52.0	62.6	6.0 × 10^14	3.4
2567-1: 5'-GTCTTCCA(TGCAT)GTTGTCC-3' [MP][DE][MP] [Oligomer 2567-1]	–	–	1.7	approximately 0%	approximately 50%	2	15	~ 50% and 50%	80	good specificity, cleaving the target mRNA in one position	little inhibition	–	45.6	2.9 × 10^7	5.8
